Data taken from patent US10941158B2, “Pyrazole ACC inhibitors and uses thereof” (Gilead Apollo, LLC, priority 2015, dated 2021).
Converted amounts (≈) assume the structure as drawn. Read-outs that look alike come from different tables or passages of the source.

How the values were obtained:
C. albicans ATCC 90028 = experiment: Anti-Fungal (Candida) Activity Assay, broth microtiter MIC; assay type: cell-based; conditions: read-out: MIC C. albicans ATCC 90028
Outline: (§1)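 Following CLSI M27-A3 broth microdilution, direct colony suspensions in RPMI 1640+MOPS were challenged with compounds. MICs were read visually against the growth control after 48 h.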

C. krusei ATCC 6258 = experiment: as above; assay type: cell-based; conditions: Pichia kudriavzevii, read-out: MIC C. krusei ATCC 6258
Outline: as §1

[1] = system: C. parapsilosis ATCC 22019; experiment: as above; assay type: cell-based; conditions: Lodderomyces parapsilosis, read-out: MIC C. parapsilosis ATCC 22019
Outline: as §1

human (hACC2) ACC2 = human (hACC2) ACC2 (Homo sapiens, UniProt O00763); experiment: In vitro Acetyl-CoA Carboxylase (ACC) inhibition assay (ADP-Glo), hACC2; assay type: biochemical
Chain of human (hACC2) ACC2 (O00763 whole entry): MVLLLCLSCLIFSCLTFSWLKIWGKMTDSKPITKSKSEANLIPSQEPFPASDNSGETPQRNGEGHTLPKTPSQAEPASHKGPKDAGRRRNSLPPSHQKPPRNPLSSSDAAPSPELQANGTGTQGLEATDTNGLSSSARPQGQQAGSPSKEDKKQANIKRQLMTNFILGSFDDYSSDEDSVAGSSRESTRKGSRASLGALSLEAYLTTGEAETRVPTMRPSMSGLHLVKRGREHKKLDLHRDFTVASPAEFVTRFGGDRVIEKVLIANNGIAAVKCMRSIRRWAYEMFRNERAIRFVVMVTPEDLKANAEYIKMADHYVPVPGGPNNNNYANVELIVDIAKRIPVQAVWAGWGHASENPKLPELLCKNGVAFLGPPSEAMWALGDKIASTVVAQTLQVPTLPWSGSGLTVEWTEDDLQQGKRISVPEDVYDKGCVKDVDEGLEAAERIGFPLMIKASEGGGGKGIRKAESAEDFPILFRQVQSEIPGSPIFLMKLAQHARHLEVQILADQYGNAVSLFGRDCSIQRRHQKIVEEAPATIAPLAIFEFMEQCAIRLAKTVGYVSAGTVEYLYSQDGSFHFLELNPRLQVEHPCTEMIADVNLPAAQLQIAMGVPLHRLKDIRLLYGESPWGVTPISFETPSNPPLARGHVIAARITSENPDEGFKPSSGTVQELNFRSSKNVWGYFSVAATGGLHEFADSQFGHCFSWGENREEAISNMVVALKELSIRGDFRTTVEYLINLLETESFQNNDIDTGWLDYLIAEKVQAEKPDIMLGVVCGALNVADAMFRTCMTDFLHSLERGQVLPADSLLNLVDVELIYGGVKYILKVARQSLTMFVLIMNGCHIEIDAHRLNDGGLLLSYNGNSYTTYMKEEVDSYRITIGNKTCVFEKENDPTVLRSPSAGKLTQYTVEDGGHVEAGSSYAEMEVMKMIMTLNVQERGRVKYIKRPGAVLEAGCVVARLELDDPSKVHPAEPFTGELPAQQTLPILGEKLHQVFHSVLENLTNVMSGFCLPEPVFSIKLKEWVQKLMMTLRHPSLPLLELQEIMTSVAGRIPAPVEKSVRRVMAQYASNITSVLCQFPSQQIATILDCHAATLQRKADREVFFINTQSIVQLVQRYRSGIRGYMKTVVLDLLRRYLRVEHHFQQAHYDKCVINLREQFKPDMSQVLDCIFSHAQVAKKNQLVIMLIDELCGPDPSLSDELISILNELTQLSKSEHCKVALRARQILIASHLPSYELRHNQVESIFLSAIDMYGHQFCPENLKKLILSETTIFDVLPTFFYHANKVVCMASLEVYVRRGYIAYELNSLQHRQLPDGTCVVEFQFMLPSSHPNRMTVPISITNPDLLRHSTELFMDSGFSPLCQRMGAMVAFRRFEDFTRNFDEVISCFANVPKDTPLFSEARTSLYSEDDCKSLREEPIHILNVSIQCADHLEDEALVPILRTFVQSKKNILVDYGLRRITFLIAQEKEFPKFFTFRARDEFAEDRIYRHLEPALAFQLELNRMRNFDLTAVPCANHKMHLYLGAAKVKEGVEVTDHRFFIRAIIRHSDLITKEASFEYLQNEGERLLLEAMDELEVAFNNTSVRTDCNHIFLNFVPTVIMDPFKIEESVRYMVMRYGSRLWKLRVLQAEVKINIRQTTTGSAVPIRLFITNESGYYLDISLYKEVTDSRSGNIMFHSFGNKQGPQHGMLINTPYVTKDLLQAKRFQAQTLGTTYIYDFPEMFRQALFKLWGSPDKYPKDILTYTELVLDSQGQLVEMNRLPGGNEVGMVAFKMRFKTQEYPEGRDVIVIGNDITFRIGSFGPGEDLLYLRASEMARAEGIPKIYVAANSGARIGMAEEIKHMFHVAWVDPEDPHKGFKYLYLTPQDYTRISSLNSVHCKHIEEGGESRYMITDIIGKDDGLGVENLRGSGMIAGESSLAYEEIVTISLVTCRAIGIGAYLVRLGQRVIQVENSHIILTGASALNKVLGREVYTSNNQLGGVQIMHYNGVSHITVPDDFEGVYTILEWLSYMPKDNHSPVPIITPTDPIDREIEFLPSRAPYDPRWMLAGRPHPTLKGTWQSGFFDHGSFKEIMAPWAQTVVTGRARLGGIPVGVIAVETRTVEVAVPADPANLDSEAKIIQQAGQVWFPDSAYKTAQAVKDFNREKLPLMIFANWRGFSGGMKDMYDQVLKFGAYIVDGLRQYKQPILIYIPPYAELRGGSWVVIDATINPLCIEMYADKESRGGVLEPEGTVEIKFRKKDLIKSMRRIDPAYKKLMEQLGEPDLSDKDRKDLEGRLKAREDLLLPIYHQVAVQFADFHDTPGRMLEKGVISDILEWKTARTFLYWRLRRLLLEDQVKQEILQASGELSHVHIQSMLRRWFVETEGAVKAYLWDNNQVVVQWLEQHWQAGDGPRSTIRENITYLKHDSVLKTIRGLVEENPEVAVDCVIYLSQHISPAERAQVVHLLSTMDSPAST
Procedure: The detailed procedure is as follows. […] 10 μL ADP glo reagent was added. […] 20 μL kinase detection reagent was added.
“NA” stands for “not assayed.”

Rhizoctonia solani (Rs) = experiment: Growth inhibition assay of fungal pathogens; assay type: cell-based; conditions: 48 h, read-out: Concentration at 90% Inhibition Rs
Outline: (§2)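 Liquid-culture assay in which test compounds are applied at three final concentrations (50, 10, 2 ppm or 2, 0.4, 0.08 ppm). Inoculum levels follow 48 h growth curves for each fungus. Growth is monitored by OD600 and by eye, and the 48 h values give % inhibition against DMSO.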

[2] = system: Fusarium moniliforme (Fm); experiment: Growth inhibition assay of fungal pathogens; assay type: cell-based; conditions: for IC90: Fusarium verticillioides, 48 h, read-out: Concentration at 90% Inhibition Fm
Outline: as §2

Septoria tritici (St) = experiment: Growth inhibition assay of fungal pathogens; assay type: cell-based; conditions: for IC90: Zymoseptoria tritici, read-out: Concentration at 90% Inhibition St
Outline: as §2

[3] = system: Collectotrichum graminicola (Cg); experiment: Growth inhibition assay of fungal pathogens; assay type: cell-based; conditions: 48 h, read-out: Concentration at 90% Inhibition Cg
Outline: as §2

Diplodia maydis (Dm) = experiment: Growth inhibition assay of fungal pathogens; assay type: cell-based; conditions: Stenocarpella maydis, 48 h, read-out: Concentration at 90% Inhibition Dm
Outline: as §2

[4] = system: Phytophthora capsici (Pc); experiment: Growth inhibition assay of fungal pathogens; assay type: cell-based; conditions: for IC90: Phytophthora capsici, read-out: Concentration at 90% Inhibition Pc
Outline: as §2

[5] = system: Fusarium virguliforme (Fv); experiment: Growth inhibition assay of fungal pathogens; assay type: cell-based; conditions: 48 h
Outline: as §2

Botrtyis cinerea (Bc) = experiment: Growth inhibition assay of fungal pathogens; assay type: cell-based; conditions: 48 h, read-out: Concentration at 90% Inhibition Bc
Outline: as §2

fungal (fACC2) ACC2 = fungal (fACC2) ACC2 (UniProt Q00955); conditions: read-out: fACC2 IC50; fungal ACC2, ADP-Glo
Chain of fungal (fACC2) ACC2 (Q00955 whole entry): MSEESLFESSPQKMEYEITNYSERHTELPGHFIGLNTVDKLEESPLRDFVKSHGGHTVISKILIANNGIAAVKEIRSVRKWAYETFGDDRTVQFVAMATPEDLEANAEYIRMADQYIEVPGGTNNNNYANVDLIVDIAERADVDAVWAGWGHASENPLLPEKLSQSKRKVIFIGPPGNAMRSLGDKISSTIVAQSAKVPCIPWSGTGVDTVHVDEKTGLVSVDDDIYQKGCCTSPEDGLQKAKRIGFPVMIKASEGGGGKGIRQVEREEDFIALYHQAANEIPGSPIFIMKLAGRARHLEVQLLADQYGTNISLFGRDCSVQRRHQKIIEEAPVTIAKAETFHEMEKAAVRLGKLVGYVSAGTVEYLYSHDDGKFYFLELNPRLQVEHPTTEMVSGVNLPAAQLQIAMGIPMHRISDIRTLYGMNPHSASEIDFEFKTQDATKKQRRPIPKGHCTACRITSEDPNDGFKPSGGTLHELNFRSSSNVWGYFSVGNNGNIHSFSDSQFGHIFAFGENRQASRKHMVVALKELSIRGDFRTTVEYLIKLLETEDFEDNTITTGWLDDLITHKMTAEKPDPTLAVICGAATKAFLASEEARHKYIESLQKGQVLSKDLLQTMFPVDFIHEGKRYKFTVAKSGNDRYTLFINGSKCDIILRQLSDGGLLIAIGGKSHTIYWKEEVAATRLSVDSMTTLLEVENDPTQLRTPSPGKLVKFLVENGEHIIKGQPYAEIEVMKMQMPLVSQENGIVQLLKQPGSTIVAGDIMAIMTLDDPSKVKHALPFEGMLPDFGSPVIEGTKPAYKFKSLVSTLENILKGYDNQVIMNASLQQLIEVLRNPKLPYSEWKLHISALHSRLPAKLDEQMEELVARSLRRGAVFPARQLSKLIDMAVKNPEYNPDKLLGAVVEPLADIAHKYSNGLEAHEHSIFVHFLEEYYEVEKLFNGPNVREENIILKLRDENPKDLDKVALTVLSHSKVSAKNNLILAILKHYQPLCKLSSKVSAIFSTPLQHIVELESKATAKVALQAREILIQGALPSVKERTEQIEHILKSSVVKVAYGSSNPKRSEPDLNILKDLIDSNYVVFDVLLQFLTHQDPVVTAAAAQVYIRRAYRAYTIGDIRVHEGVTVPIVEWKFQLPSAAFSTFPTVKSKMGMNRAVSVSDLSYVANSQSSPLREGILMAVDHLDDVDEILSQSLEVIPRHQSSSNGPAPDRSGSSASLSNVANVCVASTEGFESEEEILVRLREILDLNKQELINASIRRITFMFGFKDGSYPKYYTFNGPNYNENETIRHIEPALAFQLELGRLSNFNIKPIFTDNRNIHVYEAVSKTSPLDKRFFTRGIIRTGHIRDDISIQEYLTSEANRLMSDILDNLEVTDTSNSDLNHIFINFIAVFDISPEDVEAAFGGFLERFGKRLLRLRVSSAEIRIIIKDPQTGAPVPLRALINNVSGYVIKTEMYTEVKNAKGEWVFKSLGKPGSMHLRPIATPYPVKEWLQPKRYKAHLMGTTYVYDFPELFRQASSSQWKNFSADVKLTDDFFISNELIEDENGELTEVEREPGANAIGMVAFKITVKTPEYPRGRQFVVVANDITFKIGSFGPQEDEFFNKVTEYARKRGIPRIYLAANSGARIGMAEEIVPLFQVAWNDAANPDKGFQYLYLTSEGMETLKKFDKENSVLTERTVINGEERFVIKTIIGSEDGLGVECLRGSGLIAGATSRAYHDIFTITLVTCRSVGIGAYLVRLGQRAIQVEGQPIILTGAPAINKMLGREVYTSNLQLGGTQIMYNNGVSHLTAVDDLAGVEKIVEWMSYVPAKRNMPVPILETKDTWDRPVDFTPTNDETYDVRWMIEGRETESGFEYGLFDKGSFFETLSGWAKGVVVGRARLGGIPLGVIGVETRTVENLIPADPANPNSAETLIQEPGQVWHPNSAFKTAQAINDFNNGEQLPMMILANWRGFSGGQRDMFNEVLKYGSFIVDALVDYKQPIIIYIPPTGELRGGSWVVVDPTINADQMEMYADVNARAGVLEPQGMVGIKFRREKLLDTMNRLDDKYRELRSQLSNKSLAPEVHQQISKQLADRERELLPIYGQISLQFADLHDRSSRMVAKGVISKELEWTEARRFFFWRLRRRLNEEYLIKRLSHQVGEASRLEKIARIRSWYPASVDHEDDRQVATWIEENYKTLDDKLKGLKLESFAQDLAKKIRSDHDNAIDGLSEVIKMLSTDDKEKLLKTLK

[6] = ATCC90028, 3 replicates, MIC recorded at 48 h
[7] = ATCC6258, 3 replicates, MIC recorded at 48 h
[8] = ATCC22019, 3 replicates, MIC recorded at 48 h
[9] = Table 4a, 48 hours, read-out: Concentration at 90% Inhibition Fv
[10] = Table 4b, 48 hours, read-out: Concentration at 90% Inhibition Fv
[11] = read-out: Concentration at 90% Inhibition Fv, Table 4b, 48 hours

Row | Structure (SMILES) | MIC (C. albicans ATCC 90028; [6]) | MIC (C. krusei ATCC 6258; [7]) | MIC [1, 8] | IC50 (human (hACC2) ACC2) | IC90 (Rhizoctonia solani (Rs); Table 4a) | IC90 (Rhizoctonia solani (Rs); Table 4b) | IC90 ([2]; Table 4a, 48 hours) | IC90 ([2]; Table 4b, 48 hours) | Concentration at 90% Inhibition St (Septoria tritici (St); Table 4b, 48 hours) | IC90 (Septoria tritici (St); Table 4a, 48 hours) | IC90 ([3]; Table 4a) | IC90 ([3]; Table 4b) | IC90 (Diplodia maydis (Dm); Table 4a) | IC90 (Diplodia maydis (Dm); Table 4b) | IC90 ([4]; Table 4a, 48 hours) | Concentration at 90% Inhibition Pc ([4]; Table 4b, 48 hours) | IC90 [5, 9] | IC90 [5, 10] | IC90 (Botrtyis cinerea (Bc); Table 4a) | IC90 (Botrtyis cinerea (Bc); Table 4b) | also measured
1 | COc1ccccc1[C@H](Cn1c(=O)n(C(C)(C)C(=O)N2CCCC2)c(=O)c2c(C)c(-n3cccn3)sc21)OCC(C)C [Compound I-22, (R)-1-(2-isobutoxy-2-(2-methoxyphenyl)ethyl)-5-methyl-3-(2-methyl-1-oxo-1-(pyrrolidin-1-yl)propan-2-yl)-6-(1H-pyrazol-1-yl)thieno[2,3-d]pyrimidine-2,4(1H,3H)-dione] | 0.25 to 1 µg/mL (≈ 0.421 to 1.68 µM) | 0.25 to 1 µg/mL (≈ 0.421 to 1.68 µM) | 1.1 to 2 µg/mL (≈ 1.85 to 3.37 µM) | 3 to 10 nM | 2 µg/mL (≈ 3.37 µM) | 2 µg/mL (≈ 3.37 µM) | 2 µg/mL (≈ 3.37 µM) | 0.4 µg/mL (≈ 0.674 µM) | D (“D” provided a compound concentration of >50 ppm at 90% inhibition of fungal pathogens) | > 50 µg/mL | 2 µg/mL (≈ 3.37 µM) | 2 µg/mL (≈ 3.37 µM) | 2 µg/mL (≈ 3.37 µM) | 2 µg/mL (≈ 3.37 µM) | > 50 µg/mL | D (“D” provided a compound concentration of >50 ppm at 90% inhibition of fungal pathogens) | > 50 µg/mL | 10 µg/mL (≈ 16.8 µM) | 2 µg/mL (≈ 3.37 µM) | 2 µg/mL (≈ 3.37 µM) | –
2 | COc1ccccc1[C@H](Cn1c(=O)n(C(C)(C)C(=O)N2CCCCC2)c(=O)c2c(C)c(-n3cccn3)sc21)OCC(C)C [Compound I-23, (R)-1-(2-isobutoxy-2-(2-methoxyphenyl)ethyl)-5-methyl-3-(2-methyl-1-oxo-1-(piperidin-1-yl)propan-2-yl)-6-(1H-pyrazol-1-yl)thieno[2,3-d]pyrimidine-2,4(1H,3H)-dione] | – | – | – | 10 to 40 nM | > 50 µg/mL | > 50 µg/mL | – | – | – | – | > 50 µg/mL | 10 µg/mL (≈ 16.5 µM) | 10 µg/mL (≈ 16.5 µM) | 2 µg/mL (≈ 3.29 µM) | – | – | – | – | 2 µg/mL (≈ 3.29 µM) | 2 µg/mL (≈ 3.29 µM) | MIC (C. albicans ATCC 90028; ATCC90028, 48 h): 0.25 to 1 µg/mL (≈ 0.411 to 1.65 µM); MIC (C. krusei ATCC 6258; ATCC6258, 48 h): 0.25 to 1 µg/mL (≈ 0.411 to 1.65 µM); MIC ([1]; ATCC22019, 48 h): 1.1 to 2 µg/mL (≈ 1.81 to 3.29 µM); IC90 [2]: 0.4 µg/mL (≈ 0.658 µM); Concentration at 90% Inhibition Fm ([2]; Table 4b, 48 hours): A (“A” provided a compound concentration of 0.4 ppm at 90% inhibition of fungal pathogens); IC90 (Septoria tritici (St); 48 h, Table 4a): > 50 µg/mL; IC90 (Septoria tritici (St); 48 h, Table 4b): > 50 µg/mL; IC90 ([4]; 48 h, Table 4a): > 50 µg/mL; IC90 ([4]; 48 h, Table 4b): > 50 µg/mL; IC90 ([5]; read-out: Concentration at 90% Inhibition Fv, Table 4a, 48 hours): > 50 µg/mL; IC90 [5, 11]: > 50 µg/mL
3 | COc1ccc(F)cc1[C@H](Cn1c(=O)n(C(C)(C)C(N)=O)c(=O)c2c(C)c(-n3cccn3)sc21)OC1CCC(=O)CC1 [Compound I-25, (R)-2-(1-(2-(5-fluoro-2-methoxyphenyl)-2-((4-oxocyclo-hexyl)oxy)ethyl)-5-methyl-2,4-dioxo-6-(1H-pyrazol-1-yl)-1,4-dihydro-thieno[2,3-d]pyrimidin-3(2H)-yl)-2-methylpropanamide] | 1.1 to 2 µg/mL (≈ 1.84 to 3.35 µM) | 0.25 to 1 µg/mL (≈ 0.418 to 1.67 µM) | 1.1 to 2 µg/mL (≈ 1.84 to 3.35 µM) | 3 to 10 nM | > 50 µg/mL | > 50 µg/mL | 10 µg/mL (≈ 16.7 µM) | 2 µg/mL (≈ 3.35 µM) | D (“D” provided a compound concentration of >50 ppm at 90% inhibition of fungal pathogens) | > 50 µg/mL | > 50 µg/mL | > 50 µg/mL | > 50 µg/mL | > 50 µg/mL | > 50 µg/mL | D (“D” provided a compound concentration of >50 ppm at 90% inhibition of fungal pathogens) | > 50 µg/mL | > 50 µg/mL | > 50 µg/mL | 10 µg/mL (≈ 16.7 µM) | –
4 | COc1ccc(F)cc1[C@H](Cn1c(=O)n(C(C)(C)C(=O)N2CCCC2)c(=O)c2c(C)c(-n3cccn3)sc21)OC1CCC(=O)CC1 [Compound I-27, (R)-1-(2-(5-fluoro-2-methoxyphenyl)-2-((4-oxocyclohexyl)oxy)ethyl)-5-methyl-3-(2-methyl-1-oxo-1-(pyrrolidin-1-yl)propan-2-yl)-6-(1H-pyrazol-1-yl)thieno[2,3-d]pyrimidine-2,4(1H,3H)-dione] | 1.1 to 2 µg/mL (≈ 1.69 to 3.07 µM) | 1.1 to 2 µg/mL (≈ 1.69 to 3.07 µM) | 1.1 to 2 µg/mL (≈ 1.69 to 3.07 µM) | 10 to 40 nM | 2 µg/mL (≈ 3.07 µM) | 2 µg/mL (≈ 3.07 µM) | 0.4 µg/mL (≈ 0.614 µM) | 0.4 µg/mL (≈ 0.614 µM) | D (“D” provided a compound concentration of >50 ppm at 90% inhibition of fungal pathogens) | > 50 µg/mL | 10 µg/mL (≈ 15.3 µM) | 2 µg/mL (≈ 3.07 µM) | > 50 µg/mL | 10 µg/mL (≈ 15.3 µM) | > 50 µg/mL | D (“D” provided a compound concentration of >50 ppm at 90% inhibition of fungal pathogens) | 10 µg/mL (≈ 15.3 µM) | 2 µg/mL (≈ 3.07 µM) | 2 µg/mL (≈ 3.07 µM) | 2 µg/mL (≈ 3.07 µM) | –
5 | COc1ccc(F)cc1[C@H](Cn1c(=O)n(C(C)(C)C(=O)NC(C)C)c(=O)c2c(C)c(-n3cccn3)sc21)OCCO [Compound I-35, (R)-2-(1-(2-(5-fluoro-2-methoxyphenyl)-2-(2-hydroxy-ethoxy)ethyl)-5-methyl-2,4-dioxo-6-(1H-pyrazol-1-yl)-1,4-dihydrothieno[2,3-d]pyrimidin-3(2H)-yl)-N-isopropyl-2-methylpropanamide] | – | – | – | 10 to 40 nM | 2 µg/mL (≈ 3.4 µM) | 2 µg/mL (≈ 3.4 µM) | 0.4 µg/mL (≈ 0.681 µM) | 0.4 µg/mL (≈ 0.681 µM) | D (“D” provided a compound concentration of >50 ppm at 90% inhibition of fungal pathogens) | > 50 µg/mL | 2 µg/mL (≈ 3.4 µM) | 2 µg/mL (≈ 3.4 µM) | > 50 µg/mL | 10 µg/mL (≈ 17 µM) | > 50 µg/mL | D (“D” provided a compound concentration of >50 ppm at 90% inhibition of fungal pathogens) | 2 µg/mL (≈ 3.4 µM) | 2 µg/mL (≈ 3.4 µM) | 2 µg/mL (≈ 3.4 µM) | 2 µg/mL (≈ 3.4 µM) | IC50 (fungal (fACC2) ACC2): 0.6 to 3 nM
6 | COCCO[C@@H](Cn1c(=O)n(C(C)(C)C(=O)N2CCCC2)c(=O)c2c(C)c(-n3cccn3)sc21)c1cc(F)ccc1OC [Compound I-44, (R)-1-(2-(5-fluoro-2-methoxyphenyl)-2-(2-methoxy-ethoxy)ethyl)-5-methyl-3-(2-methyl-1-oxo-1-(pyrrolidin-1-yl)propan-2-yl)-6-(1H-pyrazol-1-yl)thieno[2,3-d]pyrimidine-2,4(1H,3H)-dione] | – | – | – | > 40 nM | – | > 50 µg/mL | – | 10 µg/mL (≈ 16.3 µM) | – | – | – | > 50 µg/mL | – | > 50 µg/mL | – | – | – | 10 µg/mL (≈ 16.3 µM) | – | > 50 µg/mL | IC90 (Septoria tritici (St); Table 4b, 48 hours): > 50 µg/mL; IC90 ([4]; Table 4b, 48 hours): > 50 µg/mL; IC50 (fungal (fACC2) ACC2): 3 to 10 nM
7 | COc1ccc(F)cc1[C@@H](O)Cn1c(=O)n(C(C)(C)C(=O)NC(C)C)c(=O)c2c(C)c(-n3cccn3)sc21 [Compound I-86, (R)-2-(1-(2-(5-fluoro-2-methoxyphenyl)-2-hydroxyethyl)-5-methyl-2,4-dioxo-6-(1H-pyrazol-1-yl)-1,4-dihydrothieno[2,3-d]pyrimidin-3(2H)-yl)-N-isopropyl-2-methylpropanamide] | – | – | – | 3 to 10 nM | – | 0.4 µg/mL (≈ 0.736 µM) | – | – | – | – | – | 2 µg/mL (≈ 3.68 µM) | – | 10 µg/mL (≈ 18.4 µM) | – | – | – | – | – | 2 µg/mL (≈ 3.68 µM) | MIC (C. albicans ATCC 90028; ATCC90028, 48 h): 1.1 to 2 µg/mL (≈ 2.02 to 3.68 µM); MIC (C. krusei ATCC 6258; ATCC6258, 48 h): 1.1 to 2 µg/mL (≈ 2.02 to 3.68 µM); MIC ([1]; ATCC22019, 48 h): 0.25 to 1 µg/mL (≈ 0.46 to 1.84 µM); IC90 [2]: 0.4 µg/mL (≈ 0.736 µM); IC90 (Septoria tritici (St); 48 h, Table 4b): > 50 µg/mL; IC90 ([4]; 48 h, Table 4b): > 50 µg/mL; IC90 [5, 11]: 0.4 µg/mL (≈ 0.736 µM)
